PMC8579695, “The Stringent Response Inhibits 70S Ribosome Formation in Staphylococcus aureus by Impeding GTPase-Ribosome Interactions” (mBio, 2021)
Read-outs that look alike come from different tables or passages of the source.

Experiments:
[1] = biological target: Era association to the 30S ribosomal subunit (Staphylococcus aureus, UniProt Q2FGF6); assay: In vitro ribosome association assay (sucrose gradient, α-His Western immunoblot), Era; type: binding; settings: 40 μM nucleotide; compared to apo, GTP, or GMPPNP-bound states
Sequence of Era association to the 30S ribosomal subunit (Q2FGF6 whole entry): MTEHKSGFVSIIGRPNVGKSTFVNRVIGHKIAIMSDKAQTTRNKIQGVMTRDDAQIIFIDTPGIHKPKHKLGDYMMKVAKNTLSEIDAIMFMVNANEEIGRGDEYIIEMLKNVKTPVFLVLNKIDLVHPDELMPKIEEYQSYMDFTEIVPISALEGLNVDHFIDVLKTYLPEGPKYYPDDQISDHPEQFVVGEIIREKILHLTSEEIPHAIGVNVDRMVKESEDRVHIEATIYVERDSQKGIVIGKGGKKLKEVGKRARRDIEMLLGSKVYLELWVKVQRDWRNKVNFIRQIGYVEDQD
Source text: It is well characterized that rRNA transcription decreases during the stringent response ([39]). In addition, the GTPase activity of ribosome assembly cofactors is inhibited by (p)ppGpp, both of which contribute to a reduction in mature ribosomes within the cell ([27]). To examine mechanistically how (p)ppGpp-GTPase interactions affect the ability of RA-GTPases to associate with ribosomal subunits, we examined the association of each GTPase to either the 30S or 50S ribosomal subunit in the presence of GDP, GTP, ppGpp, and pppGpp, as well as GMPPNP, a nonhydrolyzable analogue of GTP. The production and isolation of immature subunits, which can comprise several different immature states, introduces a large degree of heterogeneity, and so here we, and others, use homogenous mature particles as a system to examine the binding event, rather than the role of GTPase activity in downstream maturation ([11], [12], [29], [40], [41]). His-tagged GTPases were preincubated with highly pure, salt-washed 70S S. aureus ribosomes in a low-magnesium buffer to encourage ribosomal subunit dissociation, and the amount of each GTPase associated with each of the subunits was quantified by Western immunoblotting with anti-His antibodies after sucrose gradient separation. […]
FIG 2 (p)ppGpp and GDP binding reduces RA-GTPase association to the ribosome. […] After subunit separation and precipitation, bound proteins were detected in the 30S fraction using HRP-conjugated α-His antibodies. […] Bound proteins were detected in the 50S fraction using HRP-conjugated α-His antibodies. […]
A 500 nM concentration of recombinant 6×His-tagged RA-GTPase was incubated at room temperature for 5 min with 200 nM S. aureus 70S ribosomes in dissociation buffer (20 mM Tris [pH 7.5], 120 mM NH4Cl, 1.5 mM MgCl2, 2 mM β-mercaptoethanol) in the apo form and in the presence of 40 μM GTP, GMPPNP, GDP, ppGpp, or pppGpp. […] Gradients were fractionated by upward displacement of 250-μl aliquots, which were analyzed for RNA content at an absorbance of 260 nm. […]

RbgA = RbgA (Staphylococcus aureus, UniProt A0A0H2XK72); assay: DRaCALA binding of 32P-labeled nucleotides to 6×His-tagged RbgA; settings: for Bmax, RbgA: Bmax values indicate the fraction bound
Sequence of RbgA (A0A0H2XK72 entry or part of it): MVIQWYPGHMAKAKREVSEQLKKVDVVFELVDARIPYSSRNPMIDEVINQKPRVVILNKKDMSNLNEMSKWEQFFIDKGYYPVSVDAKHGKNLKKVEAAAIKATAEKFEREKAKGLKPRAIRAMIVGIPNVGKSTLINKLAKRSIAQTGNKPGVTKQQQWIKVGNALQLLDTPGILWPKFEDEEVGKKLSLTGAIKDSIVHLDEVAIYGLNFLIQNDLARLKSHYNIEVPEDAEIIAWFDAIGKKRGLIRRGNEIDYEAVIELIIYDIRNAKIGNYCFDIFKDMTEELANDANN
Source text: FIG 1 Nucleotide binding characteristics of RA-GTPases. (A) Schematic representation of the domain structure of Era, RsgA, RbgA, and HflX from S. aureus. The conserved GTPase domain (G domain) is colored in green, and accessory domains are shown. (B) Determination of binding affinities and Kd values for ^32P-labeled GTP, GDP, ppGpp, and pppGpp with purified recombinant 6×His-tagged RbgA using DRaCALA, as previously described ([36]). Each point is the mean average of at least three technical replicates, and error bars indicate standard deviations. (C) Binding assay (DRaCALA) of recombinant RbgA binding to ^32P-labeled GTP, ppGpp, and pppGpp in the presence of an excess of cold competitor (GTP, GDP, ppGpp, pppGpp, or ATP). All experiments were carried out in triplicate, with error bars representing standard deviations.
The RA-GTPases RsgA, Era, RbgA, and HflX can bind to the guanosine nucleotides GTP, GDP, ppGpp, and pppGpp. Our previous work observed higher binding affinities for ppGpp over GTP, pointing toward a difference in binding between 5′ di- or triphosphate nucleotides ([27]). […] Furthermore, these previous experiments were performed using recombinant proteins fused to large MBP tags, which could impact binding affinity determination. To examine the nucleotide binding affinities of these RA-GTPases for GDP in comparison to ppGpp, pppGpp, and GTP, and in the absence of a large tag, we used a differential radial capillary action of ligand assay (DRaCALA) with recombinant RsgA, RbgA, Era, and HflX fused to a smaller 6× His tag (Fig. 1B; see also Fig. S2A to C in the supplemental material) ([36]). In each case, the affinities of 5′ diphosphate-containing GDP and ppGpp were similar in the low μM range and were 2- to 6-fold higher than the affinities of either GTP or pppGpp (Table 1).
The synthesis of (p)ppGpp and differential radial capillary action of ligand assay (DRaCALA) binding and competition assays were performed as described previously ([27]), using recombinant, 6×His-tagged protein at the concentrations specified in the figure legends.

`Nc1nc2c(ncn2[C@@H]2O[C@H](COP(=O)(O)OP(=O)(O)OP(=O)(O)O)[C@@H](OP(=O)(O)OP(=O)(O)O)[C@H]2O)c(=O)[nH]1` [pppGpp] was tested, and the “reduction in ribosome binding of Era” value [1] was 2 fold, the Kd (RbgA) was 13.8 ± 4 µM and the “Bmax, RbgA” value (RbgA; mean ± SEM) was 0.4 ± 0.0.

In the case of `Nc1nc2c(ncn2[C@@H]2O[C@H](COP(=O)(O)OP(=O)(O)O)[C@@H](OP(=O)(O)OP(=O)(O)O)[C@H]2O)c(=O)[nH]1` [ppGpp], the “reduction in ribosome binding of Era” value [1] is reported as 2 fold, the Kd (RbgA; mean ± SEM, 32P-labeled nucleotide, 6×His-tagged protein, read-out: Kd, RbgA) is reported as 2.9 ± 0.4 µM and the “Bmax, RbgA” value (RbgA; mean ± SEM) is reported as 0.6 ± 0.0.
